Source: ChEMBL document CHEMBL1681728, “An automated, polymer-assisted strategy for the preparation of urea and thiourea derivatives of 15-membered azalides as potential antimalarial chemotherapeutics” (Bioorg Med Chem, 2011)

Assays:
Assay type in all cases: functional, organism-based
Plasmodium falciparum [1] = test: Antimalarial activity against multidrug-resistant Plasmodium falciparum TM91C235 assessed as inhibition of [3H]hypoxanthine incorporation after 96 hrs by microtiter plate scintillation counting
Plasmodium falciparum [2] = test: Antimalarial activity against chloroquine-,pyrimethamine-resistant Plasmodium falciparum W2 assessed as inhibition of [3H]hypoxanthine incorporation after 96 hrs by microtiter plate scintillation counting
Plasmodium falciparum [3] = test: Antimalarial activity against chloroquine-sensitive Plasmodium falciparum D6 assessed as inhibition of [3H]hypoxanthine incorporation after 96 hrs by microtiter plate scintillation counting

SMILES	IC50 (Plasmodium falciparum [1]) [nM]	IC50 (Plasmodium falciparum [2]) [nM]	IC50 (Plasmodium falciparum [3]) [nM]
CC[C@H]1OC(=O)[C@H](C)[C@@H](O[C@H]2C[C@@](C)(OC)[C@@H](O)[C@H](C)O2)[C@H](C)[C@@H](O[C@@H]2O[C@H](C)C[C@H](N(C)C)[C@H]2O)[C@](C)(O)C[C@@H](C)CN(CCCNC(=S)NCCN2CCCCC2)[C@H](C)[C@@H](O)[C@]1(C)O	3030	3300	9290
CC[C@H]1OC(=O)[C@H](C)[C@@H](O[C@H]2C[C@@](C)(OC)[C@@H](O)[C@H](C)O2)[C@H](C)[C@@H](O[C@@H]2O[C@H](C)C[C@H](N(C)C)[C@H]2O)[C@](C)(O)C[C@@H](C)CN(CCCNC(=O)Nc2ccc3c(c2)CCO3)[C@H](C)[C@@H](O)[C@]1(C)O	923	1590	2050
CC[C@H]1OC(=O)[C@H](C)[C@@H](O[C@H]2C[C@@](C)(OC)[C@@H](O)[C@H](C)O2)[C@H](C)[C@@H](O[C@@H]2O[C@H](C)C[C@H](N(C)C)[C@H]2O)[C@](C)(O)C[C@@H](C)CN(CCCNC(=O)Nc2ccc(C)cc2)[C@H](C)[C@@H](O)[C@]1(C)O	139	88.7	330
CC[C@H]1OC(=O)[C@H](C)[C@@H](O[C@H]2C[C@@](C)(OC)[C@@H](O)[C@H](C)O2)[C@H](C)[C@@H](O[C@@H]2O[C@H](C)C[C@H](N(C)C)[C@H]2O)[C@](C)(O)C[C@@H](C)CN(CCCNC(=O)NC2CCCC2)[C@H](C)[C@@H](O)[C@]1(C)O	616	277	6020
CC[C@H]1OC(=O)[C@H](C)[C@@H](O[C@H]2C[C@@](C)(OC)[C@@H](O)[C@H](C)O2)[C@H](C)[C@@H](O[C@@H]2O[C@H](C)C[C@H](N(C)C)[C@H]2O)[C@](C)(O)C[C@@H](C)CN(CCCNC(=S)NCC2CC3CCC2C3)[C@H](C)[C@@H](O)[C@]1(C)O (stereo partly drawn)	102	46.5	249
CC[C@H]1OC(=O)[C@H](C)[C@@H](O[C@H]2C[C@@](C)(OC)[C@@H](O)[C@H](C)O2)[C@H](C)[C@@H](O[C@@H]2O[C@H](C)C[C@H](N(C)C)[C@H]2O)[C@](C)(O)C[C@@H](C)CN(CCCNC(=O)NCc2ccco2)[C@H](C)[C@@H](O)[C@]1(C)O	496	287	5610
CCCCNC(=O)NCCCN1C[C@H](C)C[C@@](C)(O)[C@H](O[C@@H]2O[C@H](C)C[C@H](N(C)C)[C@H]2O)[C@@H](C)[C@H](O[C@H]2C[C@@](C)(OC)[C@@H](O)[C@H](C)O2)[C@@H](C)C(=O)O[C@H](CC)[C@@](C)(O)[C@H](O)[C@H]1C	820	370	5800
CC[C@H]1OC(=O)[C@H](C)[C@@H](O[C@H]2C[C@@](C)(OC)[C@@H](O)[C@H](C)O2)[C@H](C)[C@@H](O[C@@H]2O[C@H](C)C[C@H](N(C)C)[C@H]2O)[C@](C)(O)C[C@@H](C)CN(CCCNC(=S)Nc2cccc(F)c2)[C@H](C)[C@@H](O)[C@]1(C)O	116	200	511
CC[C@H]1OC(=O)[C@H](C)[C@@H](O[C@H]2C[C@@](C)(OC)[C@@H](O)[C@H](C)O2)[C@H](C)[C@@H](O[C@@H]2O[C@H](C)C[C@H](N(C)C)[C@H]2O)[C@](C)(O)C[C@@H](C)CN(CCCNC(=O)Nc2cc(F)ccc2C)[C@H](C)[C@@H](O)[C@]1(C)O	117	53.2	396
CC[C@H]1OC(=O)[C@H](C)[C@@H](O[C@H]2C[C@@](C)(OC)[C@@H](O)[C@H](C)O2)[C@H](C)[C@@H](O[C@@H]2O[C@H](C)C[C@H](N(C)C)[C@H]2O)[C@](C)(O)C[C@@H](C)CN(CCCNC(=S)Nc2ccsc2C(=O)OC)[C@H](C)[C@@H](O)[C@]1(C)O	330	375	452
CC[C@H]1OC(=O)[C@H](C)[C@@H](O[C@H]2C[C@@](C)(OC)[C@@H](O)[C@H](C)O2)[C@H](C)[C@@H](O[C@@H]2O[C@H](C)C[C@H](N(C)C)[C@H]2O)[C@](C)(O)C[C@@H](C)CN(CCCNC(=S)Nc2ccc(F)c(F)c2F)[C@H](C)[C@@H](O)[C@]1(C)O	73.7	165	449
CC[C@H]1OC(=O)[C@H](C)[C@@H](O[C@H]2C[C@@](C)(OC)[C@@H](O)[C@H](C)O2)[C@H](C)[C@@H](O[C@@H]2O[C@H](C)C[C@H](N(C)C)[C@H]2O)[C@](C)(O)C[C@@H](C)CN(CCCNC(=O)Nc2ccc(OC)cc2)[C@H](C)[C@@H](O)[C@]1(C)O	442	256	1970
CC[C@H]1OC(=O)[C@H](C)[C@@H](O[C@H]2C[C@@](C)(OC)[C@@H](O)[C@H](C)O2)[C@H](C)[C@@H](O[C@@H]2O[C@H](C)C[C@H](N(C)C)[C@H]2O)[C@](C)(O)C[C@@H](C)CN(CCCNC(=O)Nc2ccc(CC#N)cc2)[C@H](C)[C@@H](O)[C@]1(C)O	571	149	1790
CC[C@H]1OC(=O)[C@H](C)[C@@H](O[C@H]2C[C@@](C)(OC)[C@@H](O)[C@H](C)O2)[C@H](C)[C@@H](O[C@@H]2O[C@H](C)C[C@H](N(C)C)[C@H]2O)[C@](C)(O)C[C@@H](C)CN(CCCNC(=S)NCCCN2CCOCC2)[C@H](C)[C@@H](O)[C@]1(C)O	5090	1270	7010
CCCCNC(=S)NCCCN1C[C@H](C)C[C@@](C)(O)[C@H](O[C@@H]2O[C@H](C)C[C@H](N(C)C)[C@H]2O)[C@@H](C)[C@H](O[C@H]2C[C@@](C)(OC)[C@@H](O)[C@H](C)O2)[C@@H](C)C(=O)O[C@H](CC)[C@@](C)(O)[C@H](O)[C@H]1C	382	188	655
CC[C@H]1OC(=O)[C@H](C)[C@@H](O[C@H]2C[C@@](C)(OC)[C@@H](O)[C@H](C)O2)[C@H](C)[C@@H](O[C@@H]2O[C@H](C)C[C@H](N(C)C)[C@H]2O)[C@](C)(O)C[C@@H](C)CN(CCCNC(=O)Nc2cccc(F)c2)[C@H](C)[C@@H](O)[C@]1(C)O	164	285	580
CC[C@H]1OC(=O)[C@H](C)[C@@H](O[C@H]2C[C@@](C)(OC)[C@@H](O)[C@H](C)O2)[C@H](C)[C@@H](O[C@@H]2O[C@H](C)C[C@H](N(C)C)[C@H]2O)[C@](C)(O)C[C@@H](C)CN(CCCNC(=O)Nc2cccs2)[C@H](C)[C@@H](O)[C@]1(C)O	549	721	964
CC[C@H]1OC(=O)[C@H](C)[C@@H](O[C@H]2C[C@@](C)(OC)[C@@H](O)[C@H](C)O2)[C@H](C)[C@@H](O[C@@H]2O[C@H](C)C[C@H](N(C)C)[C@H]2O)[C@](C)(O)C[C@@H](C)CN(CCCNC(=O)Nc2ccc(C)cc2C)[C@H](C)[C@@H](O)[C@]1(C)O	232	179	470
CC[C@H]1OC(=O)[C@H](C)[C@@H](O[C@H]2C[C@@](C)(OC)[C@@H](O)[C@H](C)O2)[C@H](C)[C@@H](O[C@@H]2O[C@H](C)C[C@H](N(C)C)[C@H]2O)[C@](C)(O)C[C@@H](C)CN(CCCNC(=S)Nc2ccc(OC(F)F)cc2)[C@H](C)[C@@H](O)[C@]1(C)O	121	63	216
CCOC(=O)c1ccc(NC(=S)NCCCN2C[C@H](C)C[C@@](C)(O)[C@H](O[C@@H]3O[C@H](C)C[C@H](N(C)C)[C@H]3O)[C@@H](C)[C@H](O[C@H]3C[C@@](C)(OC)[C@@H](O)[C@H](C)O3)[C@@H](C)C(=O)O[C@H](CC)[C@@](C)(O)[C@H](O)[C@H]2C)cc1	107	70.9	121
CC[C@H]1OC(=O)[C@H](C)[C@@H](O[C@H]2C[C@@](C)(OC)[C@@H](O)[C@H](C)O2)[C@H](C)[C@@H](O[C@@H]2O[C@H](C)C[C@H](N(C)C)[C@H]2O)[C@](C)(O)C[C@@H](C)CN(CCCNC(=O)Nc2ccc(OC)c(OC3CCCC3)c2)[C@H](C)[C@@H](O)[C@]1(C)O	138	201	445
CC[C@H]1OC(=O)[C@H](C)[C@@H](O[C@H]2C[C@@](C)(OC)[C@@H](O)[C@H](C)O2)[C@H](C)[C@@H](O[C@@H]2O[C@H](C)C[C@H](N(C)C)[C@H]2O)[C@](C)(O)C[C@@H](C)CN(CCCNC(=S)NCCCl)[C@H](C)[C@@H](O)[C@]1(C)O	12800	12800	12800
CC[C@H]1OC(=O)[C@H](C)[C@@H](O[C@H]2C[C@@](C)(OC)[C@@H](O)[C@H](C)O2)[C@H](C)[C@@H](O[C@@H]2O[C@H](C)C[C@H](N(C)C)[C@H]2O)[C@](C)(O)C[C@@H](C)CN(CCCNC(=O)Nc2ccc3c(c2)CCC3)[C@H](C)[C@@H](O)[C@]1(C)O	96.2	73.6	266
CC[C@H]1OC(=O)[C@H](C)[C@@H](O[C@H]2C[C@@](C)(OC)[C@@H](O)[C@H](C)O2)[C@H](C)[C@@H](O[C@@H]2O[C@H](C)C[C@H](N(C)C)[C@H]2O)[C@](C)(O)C[C@@H](C)CN(CCCNC(=O)Nc2ccc(C(C)=O)cc2)[C@H](C)[C@@H](O)[C@]1(C)O	398	709	1730
CC[C@H]1OC(=O)[C@H](C)[C@@H](O[C@H]2C[C@@](C)(OC)[C@@H](O)[C@H](C)O2)[C@H](C)[C@@H](O[C@@H]2O[C@H](C)C[C@H](N(C)C)[C@H]2O)[C@](C)(O)C[C@@H](C)CN(CCCNC(=S)NCC(C)C)[C@H](C)[C@@H](O)[C@]1(C)O	435	495	689
CC[C@H]1OC(=O)[C@H](C)[C@@H](O[C@H]2C[C@@](C)(OC)[C@@H](O)[C@H](C)O2)[C@H](C)[C@@H](O[C@@H]2O[C@H](C)C[C@H](N(C)C)[C@H]2O)[C@](C)(O)C[C@@H](C)CN(CCCNC(=O)Nc2ccccc2-c2ccccc2)[C@H](C)[C@@H](O)[C@]1(C)O	137	202	254
